From patent US10471020B2, “Nanoparticles with protected interiors, and methods of use thereof” (Universidade de Santiago de Compostela, priority 2016, dated 2019)

Columns and labels:
Caco-2 cells = test: Cytotoxicity study on Caco-2 cells (MTS assay); format: cell-based, Human; details: Caco-2, 2 hour incubation
Description: Culture of Caco-2 cells. Caco-2 cells were grown in DMEM high glucose with L-glutamine supplemented with 10% heat inactivated fetal bovine serum, 1% penicillin (100 U/mL), streptomycin (100 micrograms/mL), and 1% NEAA solution.
Cytotoxicity study on Caco-2 cells. Cytotoxicity was determined using a MTS assay as an indicator of cell viability. Cell viability was assessed after the co-incubation of 10,000 Caco-2 cells/well on a 96-well tissue cultured plate (Costar® Corning®) with the aforementioned formulations in dispersion in culture DMEM medium supplemented with 4 mM of glutamine, 100 U/mL of penicillin, 100 microgram/mL of streptomycin and […] heat inactivated fetal bovine serum. […] The EC50 value for the different formulations were calculated from the dataset by non-linear regression analysis using GraphPad Prism.

[1] = tested on: human intestinal tissue (jejunal); test: Toxicity in human intestinal tissue in Ussing chambers (electrophysiology, forskolin response); details: Ussing chamber
Excerpt: Toxicity and permeability in human intestinal tissue. Jejunal tissue samples were collected from patients undergoing laparoscopic Roux-en-Y gastric bypass. Patients had given full informed consent. The study has been reviewed and approved by a regional ethical review board. Tissue samples were immediately transferred into a vessel containing cold, oxygenated Krebs-Ringer buffer and quickly transported to the laboratory. Arriving, the epithelium was dissected away from sub-epithelial tissues and mounted in horizontal as well as vertically oriented Ussing chambers with 9 mm openings between the two chambers. The basolateral chamber was filled with glucose containing Krebs-Ringer buffer, while the glucose in the apical chamber was substituted with mannitol. This is to avoid SGLT-induced tight junction opening. […] Electrophysiology of the tissue was monitored throughout the experiment to assure continued tissue viability. […] Viable tissue with oxidative metabolism will form cAMP in response to forskolin leading to an opening of CFTR C1 channels, the response was monitored as changes in potential difference and short-circuit current over the epithelium. The permeability of fluorescently labeled nanoparticles was analyzed in a plate reader and the apparent permeability rate constant (Papp) was calculated.

Compound	cytotoxicity (Caco-2 cells)	cytotoxicity sequence of tested products (Caco-2 cells)	forskolin response [1]
CC(C)CCC[C@@H](C)[C@H]1CC[C@H]2[C@@H]3CC=C4C[C@@H](OC(=O)N[C@H](CCCNC(=N)N)C(=O)N[C@H](CCCNC(=N)N)C(=O)N[C@H](CCCNC(=N)N)C(=O)N[C@H](CCCNC(=N)N)C(=O)N[C@H](CCCNC(=N)N)C(=O)N[C@H](CCCNC(=N)N)C(=O)N[C@H](CCCNC(=N)N)C(=O)N[C@H](CCCNC(=N)N)C(N)=O)CC[C@]4(C)[C@H]3CC[C@]12C [Chol-R8]	highest cytotoxicity	Chol-R8>C12-R8>ENCPs>diblock or branched PGA-PEG	–
CCCCCCCCCCCC(=O)N[C@H](CCCNC(=N)N)C(=O)N[C@H](CCCNC(=N)N)C(=O)N[C@H](CCCNC(=N)N)C(=O)N[C@H](CCCNC(=N)N)C(=O)N[C@H](CCCNC(=N)N)C(=O)N[C@H](CCCNC(=N)N)C(=O)N[C@H](CCCNC(=N)N)C(=O)N[C@H](CCCNC(=N)N)C(N)=O [Formulation C12-R8]	–	Chol-R8>C12-R8>ENCPs>diblock or branched PGA-PEG	no evident change
